Read-outs that look alike come from different tables or passages of the source.

Format in all cases: cell-based
The subject of one assay is Pyricularia oryzae. In words: microbe, parasite or virus in culture. Particulars: for Observed efficacy: single active compound.
The subject of a further assay is Botrytis cinerea. In words: Activity against the grey mold Botrytis cinerea in the microtiterplate test.
Another assay relates to Septoria tritici. Kind of assay: Activity against leaf blotch on wheat caused by Septoria tritici (microtiterplate test).
[1] abbreviates: single active compound, 0.063 ppm.
The mark [2] stands for this setting: Botrytis cinerea, 168 h, single active compound, 1 ppm, read-out: Observed efficacy.
[3] abbreviates: Zymoseptoria tritici, 168 h, single active, 1 ppm, read-out: Observed efficacy.
[4] abbreviates: Pyricularia oryzae, 168 h, read-out: Observed efficacy.
[5] abbreviates: Botrytis cinerea, 168 h, single active compound, read-out: Observed efficacy.
[6] abbreviates: Zymoseptoria tritici, 168 h, single active, 0.25 ppm, read-out: Observed efficacy.
Where [7] appears, read: Zymoseptoria tritici, 168 h, single active, 4 ppm, read-out: Observed efficacy.
Where [8] appears, read: Zymoseptoria tritici, 168 h, single active, 0.016 ppm, read-out: Observed efficacy.
Setting [9] is: single active compound, 0.25 ppm.
[10] abbreviates: Zymoseptoria tritici, 168 h, read-out: Observed efficacy.

As to `Cc1ccc(C(=O)OCc2ccc(Oc3ccccc3)cc2)c(N)n1` [Aminopyrifen, aminopyrifen], the Observed efficacy with Pyricularia oryzae (0.001 ppm) is 0%; in the assay on Pyricularia oryzae (0.004 ppm), 6%; in the assay on Pyricularia oryzae (0.016 ppm) it was 36%.

With `CO/C=C(/C(=O)OC)c1ccccc1Oc1cc(Oc2ccccc2C#N)ncn1` [Azoxystrobin, azoxystrobin], the Observed efficacy was 5% in the assay on Botrytis cinerea (setting [1]); 5% in the assay on Septoria tritici (single active, 0.004 ppm); 2% with Septoria tritici (single active, 0.016 ppm); 26% in the assay with Septoria tritici (single active, 0.063 ppm); 4% in the assay on Pyricularia oryzae (0.004 ppm); 44% in the assay with Pyricularia oryzae (0.016 ppm).

For `O=C(Nc1ccccc1-c1ccc(Cl)cc1)c1cccnc1Cl` [Boscalid, boscalid], the inhibition of growth at 1 ppm was determined as 63% in the assay with Botrytis cinerea (setting [2]) and 58% in the assay on Septoria tritici (setting [3]). Further, the inhibition of growth at 0.25 ppm in the assay on Pyricularia oryzae (setting [4]) amounted to 2%. Besides, in the assay on Pyricularia oryzae (setting [4]), the inhibition of growth at 4 ppm is 10%.

Consider `COc1cc(C2=NC(C)(C)C(F)(F)c3ccccc32)cnc1C(F)F` [Compound 1-4], for which the inhibition of growth at 1 ppm came out at 12% in the assay on Botrytis cinerea (setting [2]), 8% in the assay with Septoria tritici (setting [3]) and 29% in the assay with Pyricularia oryzae (setting [4]). For the same compound, the figures for the inhibition of growth at 4 ppm with Botrytis cinerea (setting [5]), in the assay on Septoria tritici (setting [7]) and with Pyricularia oryzae (setting [4]) were 21%, 1% and 42%, respectively. The inhibition of growth at 16 ppm in the assay with Botrytis cinerea (Botrytis cinerea, 168 h, single active compound, 16 ppm, read-out: Observed efficacy) was determined as 41%; in the assay on Septoria tritici (Zymoseptoria tritici, 168 h, single active, 16 ppm, read-out: Observed efficacy), 17%. Further, the inhibition of growth at 0.25 ppm with Septoria tritici (setting [6]) worked out at 7%; in the assay with Pyricularia oryzae (setting [4]), 23%. In the assay with Pyricularia oryzae (setting [4]), the inhibition of growth at 0.063 ppm turned out to be 18%.

Regarding `Cc1cc(C2CC2)nc(Nc2ccccc2)n1` [Cyprodinil, cyprodinil], the inhibition of growth at 4 ppm with Botrytis cinerea (setting [5]) is 53%; in the assay with Septoria tritici (setting [7]) it was 10%; in the assay on Pyricularia oryzae (setting [4]) it was 61%. Also, in the assay with Pyricularia oryzae (setting [4]), the inhibition of growth at 1 ppm was determined as 50%.

Consider `CC1COC(Cn2cncn2)(c2ccc(Oc3ccc(Cl)cc3)cc2Cl)O1` (stereo not drawn) [Difenoconazol, difenoconazole], for which, in the assay with Botrytis cinerea (Botrytis cinerea, 168 h, single active compound, 0.25 ppm, read-out: Observed efficacy), the inhibition of growth at 0.25 ppm amounted to 21%. Also, the inhibition of growth at 0.016 ppm with Septoria tritici (setting [8]) turned out to be 22%. Also, in the assay on Pyricularia oryzae (setting [4]), the inhibition of growth at 0.063 ppm turned out to be 2% and the inhibition of growth at 0.25 ppm came to 11%.

As to `CNC(=O)/C(=N/OC)c1ccccc1COc1cc(C)ccc1C` [Dimoxystrobin, dimoxystrobin], the Observed efficacy with Botrytis cinerea (setting [1]) worked out at 0%; in the assay with Botrytis cinerea (setting [9]), 12%; with Septoria tritici (single active, 0.016 ppm), 2%; in the assay with Septoria tritici (single active, 0.063 ppm), 27%.

For `COc1ccnc(C(=O)N[C@@H](C)C(=O)O[C@@H](C)C(c2ccc(F)cc2)c2ccc(F)cc2)c1OC(C)=O` [Florylpicoxamid, florylpicoxamid], the Observed efficacy with Botrytis cinerea (setting [9]) turned out to be 2%; with Botrytis cinerea (single active compound, 1 ppm), 12%; with Septoria tritici (single active, 0.063 ppm), 54%; in the assay with Septoria tritici (single active, 0.25 ppm) it was 79%; in the assay with Pyricularia oryzae (0.016 ppm) it was 49%.

Take `CC1CC(C)(C)c2c(F)ccc(NC(=O)c3cn(C)nc3C(F)F)c21` (stereo not drawn) [Fluindapyr, fluindapyr]: the Observed efficacy with Botrytis cinerea (setting [9]) is reported as 30%; with Septoria tritici (single active, 0.25 ppm), 22%; in the assay with Septoria tritici (single active, 1 ppm), 67%; with Pyricularia oryzae (1 ppm), 41%.

As to `O=C(NCCc1ncc(C(F)(F)F)cc1Cl)c1ccccc1C(F)(F)F` [Fluopyram, fluopyram], the inhibition of growth at 0.25 ppm in the assay with Septoria tritici (setting [6]) stood at 23%; in the assay on Pyricularia oryzae (setting [4]), 7%.

Regarding `Cn1cc(C(=O)Nc2ccccc2-c2cc(F)c(F)c(F)c2)c(C(F)F)n1` [Fluxapyroxad, fluxapyroxad], the Observed efficacy is 28% with Botrytis cinerea (setting [1]); 24% in the assay with Septoria tritici (single active, 0.063 ppm); 8% with Pyricularia oryzae (0.063 ppm).

Consider `C=CCOC(Cn1ccnc1)c1ccc(Cl)cc1Cl` (stereo not drawn) [Imazalil, imazalil], for which the inhibition of growth at 1 ppm in the assay with Botrytis cinerea (setting [2]) was found to be 54%; in the assay on Pyricularia oryzae (setting [4]) it was 20%.

In the case of `CNC(=O)C(OC)c1ccccc1COc1cc(C)ccc1C` (stereo not drawn) [Mandestrobin, mandestrobin], the Observed efficacy in the assay with Septoria tritici (single active, 1 ppm) is 11%; in the assay with Pyricularia oryzae (1 ppm) it was 9%.

With `CC(O)(Cn1cncn1)c1ccc(Oc2ccc(Cl)cc2)cc1C(F)(F)F` (stereo not drawn) [Mefentrifluconazol, mefentrifluconazole], the Observed efficacy in the assay on Botrytis cinerea (single active compound, 0.016 ppm) is reported as 10%; in the assay on Pyricularia oryzae (0.016 ppm), 7%.

For `CC#Cc1cc(C)nc(Nc2ccccc2)n1` [Mepanipyrim, mepanipyrim], the inhibition of growth at 1 ppm in the assay on Botrytis cinerea (setting [2]) stood at 63%. Moreover, the inhibition of growth at 4 ppm in the assay on Botrytis cinerea (setting [5]) stood at 72%. In the assay on Pyricularia oryzae (setting [4]), the inhibition of growth at 0.25 ppm was found to be 3%, the inhibition of growth at 1 ppm worked out at 45% and the inhibition of growth at 4 ppm amounted to 64%.

As to `COCC(=O)N(c1c(C)cccc1C)C(C)C(=O)OC` (stereo not drawn) [Metalaxyl, metalaxyl], the inhibition of growth at 4 ppm with Botrytis cinerea (setting [5]) was 19%. Moreover, in the assay with Pyricularia oryzae (setting [4]), the inhibition of growth at 1 ppm was found to be 4% and the inhibition of growth at 4 ppm came to 11%.

`CC1(C)CCC(Cc2ccc(Cl)cc2)C1(O)Cn1cncn1` (stereo not drawn) [Metconazol] returned an Observed efficacy with Septoria tritici (single active, 0.063 ppm) of 30%.

For the compound `Cc1cccc(-n2nnn(C)c2=O)c1COc1ccn(-c2ccc(Cl)cc2)n1` [Methyltetraprol, metyltetrapole], the Observed efficacy with Septoria tritici (single active, 0.004 ppm) is reported as 5%; in the assay with Septoria tritici (single active, 0.016 ppm), 22%; in the assay on Pyricularia oryzae (0.016 ppm), 24%.

With `OC(Cc1ccccc1Cl)(Cn1nc[nH]c1=S)C1(Cl)CC1` (stereo not drawn) [Prothioconazol, prothioconazole], the inhibition of growth at 0.063 ppm with Septoria tritici (Zymoseptoria tritici, 168 h, single active, 0.063 ppm, read-out: Observed efficacy) was found to be 1%. Also, the inhibition of growth at 0.25 ppm in the assay with Pyricularia oryzae (setting [4]) came to 12%.

Regarding `CON(C(=O)c1cn(C)nc1C(F)F)C(C)Cc1c(Cl)cc(Cl)cc1Cl` (stereo not drawn) [Pydiflumetofen, pydiflumetofen], the Observed efficacy with Pyricularia oryzae (1 ppm) is 44%.

For `COC(=O)N(OC)c1ccccc1COc1ccn(-c2ccc(Cl)cc2)n1` [Pyraclostrobin, pyraclostrobin], the inhibition of growth at 0.004 ppm with Septoria tritici (Zymoseptoria tritici, 168 h, single active, 0.004 ppm, read-out: Observed efficacy) turned out to be 7%. Also, the inhibition of growth at 0.016 ppm in the assay with Septoria tritici (setting [8]) worked out at 52%. In the assay with Pyricularia oryzae (setting [4]), the inhibition of growth at 0.001 ppm came out at 4% and the inhibition of growth at 0.004 ppm was 14%.

As to `O=C1CCc2cccc3c2N1CC3` [Pyroquilon, pyroquilon], the inhibition of growth at 1 ppm in the assay on Botrytis cinerea (Botrytis cinerea, 168 h, read-out: Observed efficacy) came out at 2%; with Pyricularia oryzae (setting [4]) it was 7%.

`S1SSSSSSS1` [Sulfur, sulfur]: in the assay on Septoria tritici (setting [10]), the inhibition of growth at 1 ppm amounted to 18%. Besides, the inhibition of growth at 4 ppm with Pyricularia oryzae (setting [4]) was determined as 54%.

As for `Cc1cccc2sc3nncn3c12` [Tricyclazol, tricyclazole], the inhibition of growth at 4 ppm in the assay with Botrytis cinerea (setting [5]) was 2%; with Pyricularia oryzae (setting [4]), 6%.

Turning to `CC1(C)CCC(=Cc2ccc(Cl)cc2)C1(O)Cn1cncn1` (stereo not drawn) [Triticonazol, triticonazole], the inhibition of growth at 1 ppm in the assay with Pyricularia oryzae (setting [4]) was determined as 10%.

In the case of `OCC1=C[C@H](N[C@H]2C[C@H](CO)[C@@H](O[C@@H]3O[C@H](CO)[C@@H](O)[C@H](O)[C@H]3O)[C@H](O)[C@H]2O)[C@H](O)[C@@H](O)[C@@H]1O` [Validamycin, validamycin], the inhibition of growth at 63 ppm in the assay on Pyricularia oryzae (setting [4]) worked out at 10%.

For `Cc1nc2c(F)c(F)ccc2cc1Oc1cccc(F)c1C(C)(C)O` [drawing 29], the inhibition of growth at 4 ppm with Pyricularia oryzae (setting [4]) was 50%.

Regarding `Cc1nc2c(F)c(F)ccc2cc1Oc1cccc(F)c1C(C)(C)O` [drawing 43], the inhibition of growth at 1 ppm in the assay with Septoria tritici (setting [10]) came out at 45%.

Take Mancozeb: the Observed efficacy in the assay with Septoria tritici (single active, 1 ppm) was found to be 16%.

For inpyrfluxam, the Observed efficacy in the assay with Botrytis cinerea (setting [9]) is 44%; in the assay on Septoria tritici (single active, 0.25 ppm) it was 22%.

Consider metiram, for which the Observed efficacy in the assay on Septoria tritici (single active, 1 ppm) stood at 2%; with Septoria tritici (single active, 4 ppm), 4%; in the assay on Pyricularia oryzae (4 ppm), 8%.

prohexadione-calcium [Prohexadion-ca]: the Observed efficacy with Septoria tritici (single active, 63 ppm) is 12%; in the assay on Pyricularia oryzae (63 ppm), 8%.

Source of the values: patent publication US11839214B2, “Fungicidal mixture comprising substituted pyridines” (BASF SE, priority 2017, dated 2023).
